Source: the kinase profiling compilation of Christmann-Franck et al. (2016)

Legend:
Assay in all cases: KINOMEscan competition binding
CDK4 CCND1 (human) = CDK4 CCND1 (human) (UniProt P11802+P24385); conditions: compound 1.0 µM
CDK4 CCND3 (human) = CDK4 CCND3 (human) (UniProt P11802+P30281); conditions: compound 1.0 µM
CPK1 (P.falciparum) = conditions: compound 1.0 µM
[1] = tested on: FLT3 (human), P36888 [ITD]; conditions: compound 1.0 µM
MAP2K5 (human) = MAP2K5 (human) (UniProt Q13163)
MAP3K1 (human) = MAP3K1 (human) (UniProt Q13233)
PDGFRB (human) = PDGFRB (human) (UniProt P09619)
PKN3 (M.tuberculosis) = PKN3 (M.tuberculosis) (UniProt Q6P5Z2); conditions: compound 1.0 µM
RET (human) = RET (human) (UniProt P07949)
RIPK2 (human) = RIPK2 (human) (UniProt O43353)
RPS6KA6 KD2 (human) = RPS6KA6 KD2 (human) (UniProt Q9UK32)
STK16 (human) = STK16 (human) (UniProt O75716)

Sequence of PDGFRB (human) (P09619 whole entry, looked up): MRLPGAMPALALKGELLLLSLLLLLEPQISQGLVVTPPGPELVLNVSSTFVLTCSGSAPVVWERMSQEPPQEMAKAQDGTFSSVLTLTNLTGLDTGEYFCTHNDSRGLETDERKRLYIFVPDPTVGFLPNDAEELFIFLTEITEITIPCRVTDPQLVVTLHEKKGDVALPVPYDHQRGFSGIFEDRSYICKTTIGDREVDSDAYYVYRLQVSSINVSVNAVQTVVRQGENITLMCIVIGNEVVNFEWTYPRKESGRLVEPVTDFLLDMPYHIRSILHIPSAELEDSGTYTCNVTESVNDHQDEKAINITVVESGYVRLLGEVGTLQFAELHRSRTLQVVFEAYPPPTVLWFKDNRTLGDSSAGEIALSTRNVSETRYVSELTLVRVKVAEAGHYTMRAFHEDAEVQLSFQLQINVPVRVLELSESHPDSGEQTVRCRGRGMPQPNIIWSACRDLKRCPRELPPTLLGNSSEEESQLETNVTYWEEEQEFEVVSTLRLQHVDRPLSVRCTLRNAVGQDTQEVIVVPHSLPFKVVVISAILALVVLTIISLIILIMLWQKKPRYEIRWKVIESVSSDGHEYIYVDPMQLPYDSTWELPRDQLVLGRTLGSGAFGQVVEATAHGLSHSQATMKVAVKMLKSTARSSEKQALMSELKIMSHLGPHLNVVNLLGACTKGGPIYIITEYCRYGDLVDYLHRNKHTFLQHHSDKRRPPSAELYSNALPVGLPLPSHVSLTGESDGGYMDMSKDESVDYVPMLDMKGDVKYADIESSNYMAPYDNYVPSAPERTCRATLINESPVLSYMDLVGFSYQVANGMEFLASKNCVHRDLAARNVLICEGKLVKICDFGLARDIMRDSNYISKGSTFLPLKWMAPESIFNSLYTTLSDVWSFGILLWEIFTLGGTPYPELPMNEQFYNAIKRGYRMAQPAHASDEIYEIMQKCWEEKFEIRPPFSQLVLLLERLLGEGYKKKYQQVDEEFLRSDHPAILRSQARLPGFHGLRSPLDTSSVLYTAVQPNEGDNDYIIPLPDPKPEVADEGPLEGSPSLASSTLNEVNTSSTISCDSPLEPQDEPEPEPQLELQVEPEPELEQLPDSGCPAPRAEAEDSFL
Sequence of CDK4 CCND1 (human) (P11802 whole entry, looked up): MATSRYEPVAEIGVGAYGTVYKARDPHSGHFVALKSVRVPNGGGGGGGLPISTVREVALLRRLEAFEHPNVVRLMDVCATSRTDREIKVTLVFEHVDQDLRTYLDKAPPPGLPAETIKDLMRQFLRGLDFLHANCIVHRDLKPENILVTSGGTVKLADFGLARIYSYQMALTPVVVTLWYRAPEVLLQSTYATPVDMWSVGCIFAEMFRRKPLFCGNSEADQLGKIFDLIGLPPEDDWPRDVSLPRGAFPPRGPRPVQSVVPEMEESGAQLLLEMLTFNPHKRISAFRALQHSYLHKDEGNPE
Sequence of CDK4 CCND1 (human) (P24385 whole entry, looked up): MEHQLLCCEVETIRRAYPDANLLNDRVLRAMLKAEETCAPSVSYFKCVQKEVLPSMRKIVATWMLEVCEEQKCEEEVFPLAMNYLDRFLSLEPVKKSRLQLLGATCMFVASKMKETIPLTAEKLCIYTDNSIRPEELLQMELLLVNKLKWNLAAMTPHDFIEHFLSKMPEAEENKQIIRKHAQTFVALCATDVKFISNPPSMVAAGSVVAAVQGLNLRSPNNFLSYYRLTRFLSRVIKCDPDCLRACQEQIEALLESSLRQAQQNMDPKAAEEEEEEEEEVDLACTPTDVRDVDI
Sequence of CDK4 CCND3 (human) (P11802 whole entry, looked up): as the sequence (P11802 whole entry, looked up) above
Sequence of CDK4 CCND3 (human) (P30281 whole entry, looked up): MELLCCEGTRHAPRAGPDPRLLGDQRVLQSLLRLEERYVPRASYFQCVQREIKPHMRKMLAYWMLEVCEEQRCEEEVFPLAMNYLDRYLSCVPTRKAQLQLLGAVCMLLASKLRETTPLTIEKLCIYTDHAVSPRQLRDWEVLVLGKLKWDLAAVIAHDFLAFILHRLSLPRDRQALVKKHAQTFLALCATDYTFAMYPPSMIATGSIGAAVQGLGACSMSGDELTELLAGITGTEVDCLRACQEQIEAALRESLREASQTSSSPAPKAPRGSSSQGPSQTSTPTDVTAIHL
Sequence of FLT3 (human), P36888 [ITD] (P36888 whole entry, looked up, change not shown): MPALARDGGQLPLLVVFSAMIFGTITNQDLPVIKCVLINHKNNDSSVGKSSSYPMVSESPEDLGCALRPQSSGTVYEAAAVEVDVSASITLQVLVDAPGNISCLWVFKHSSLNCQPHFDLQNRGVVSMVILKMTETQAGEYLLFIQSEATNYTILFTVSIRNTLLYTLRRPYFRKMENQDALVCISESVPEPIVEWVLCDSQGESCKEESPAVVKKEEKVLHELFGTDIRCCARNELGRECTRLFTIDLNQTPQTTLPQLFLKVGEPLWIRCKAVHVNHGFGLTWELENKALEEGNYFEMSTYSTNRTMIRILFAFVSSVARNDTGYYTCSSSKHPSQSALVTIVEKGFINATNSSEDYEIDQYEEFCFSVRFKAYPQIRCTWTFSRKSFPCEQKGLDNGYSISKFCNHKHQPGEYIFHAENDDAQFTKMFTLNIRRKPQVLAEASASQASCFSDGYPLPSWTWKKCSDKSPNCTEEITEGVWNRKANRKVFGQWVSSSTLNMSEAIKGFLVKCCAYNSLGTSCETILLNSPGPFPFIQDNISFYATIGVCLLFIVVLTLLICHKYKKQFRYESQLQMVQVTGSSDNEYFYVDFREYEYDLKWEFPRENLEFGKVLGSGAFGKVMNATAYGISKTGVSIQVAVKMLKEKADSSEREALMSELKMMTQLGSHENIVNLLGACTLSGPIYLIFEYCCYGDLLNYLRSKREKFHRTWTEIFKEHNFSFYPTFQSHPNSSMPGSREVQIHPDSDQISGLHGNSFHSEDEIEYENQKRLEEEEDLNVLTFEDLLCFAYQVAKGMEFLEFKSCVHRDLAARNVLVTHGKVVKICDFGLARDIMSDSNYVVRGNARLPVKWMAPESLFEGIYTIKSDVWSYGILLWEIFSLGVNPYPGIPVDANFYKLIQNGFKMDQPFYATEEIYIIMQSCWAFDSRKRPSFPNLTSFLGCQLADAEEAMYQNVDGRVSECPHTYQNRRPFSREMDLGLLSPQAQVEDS
Sequence of MAP2K5 (human) (Q13163 whole entry, looked up): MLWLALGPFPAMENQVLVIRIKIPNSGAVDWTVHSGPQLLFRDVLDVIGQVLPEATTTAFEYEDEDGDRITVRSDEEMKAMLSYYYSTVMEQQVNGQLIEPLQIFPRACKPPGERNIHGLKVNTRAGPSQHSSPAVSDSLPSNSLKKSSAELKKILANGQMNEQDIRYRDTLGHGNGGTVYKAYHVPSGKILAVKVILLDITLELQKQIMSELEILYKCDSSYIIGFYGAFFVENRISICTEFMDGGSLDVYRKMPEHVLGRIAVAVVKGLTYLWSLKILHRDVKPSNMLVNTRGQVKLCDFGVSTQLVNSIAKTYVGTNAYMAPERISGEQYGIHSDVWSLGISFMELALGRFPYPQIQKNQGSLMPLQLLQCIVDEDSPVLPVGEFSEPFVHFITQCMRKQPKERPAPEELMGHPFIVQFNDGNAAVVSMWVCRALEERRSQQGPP
Sequence of MAP3K1 (human) (Q13233 whole entry, looked up): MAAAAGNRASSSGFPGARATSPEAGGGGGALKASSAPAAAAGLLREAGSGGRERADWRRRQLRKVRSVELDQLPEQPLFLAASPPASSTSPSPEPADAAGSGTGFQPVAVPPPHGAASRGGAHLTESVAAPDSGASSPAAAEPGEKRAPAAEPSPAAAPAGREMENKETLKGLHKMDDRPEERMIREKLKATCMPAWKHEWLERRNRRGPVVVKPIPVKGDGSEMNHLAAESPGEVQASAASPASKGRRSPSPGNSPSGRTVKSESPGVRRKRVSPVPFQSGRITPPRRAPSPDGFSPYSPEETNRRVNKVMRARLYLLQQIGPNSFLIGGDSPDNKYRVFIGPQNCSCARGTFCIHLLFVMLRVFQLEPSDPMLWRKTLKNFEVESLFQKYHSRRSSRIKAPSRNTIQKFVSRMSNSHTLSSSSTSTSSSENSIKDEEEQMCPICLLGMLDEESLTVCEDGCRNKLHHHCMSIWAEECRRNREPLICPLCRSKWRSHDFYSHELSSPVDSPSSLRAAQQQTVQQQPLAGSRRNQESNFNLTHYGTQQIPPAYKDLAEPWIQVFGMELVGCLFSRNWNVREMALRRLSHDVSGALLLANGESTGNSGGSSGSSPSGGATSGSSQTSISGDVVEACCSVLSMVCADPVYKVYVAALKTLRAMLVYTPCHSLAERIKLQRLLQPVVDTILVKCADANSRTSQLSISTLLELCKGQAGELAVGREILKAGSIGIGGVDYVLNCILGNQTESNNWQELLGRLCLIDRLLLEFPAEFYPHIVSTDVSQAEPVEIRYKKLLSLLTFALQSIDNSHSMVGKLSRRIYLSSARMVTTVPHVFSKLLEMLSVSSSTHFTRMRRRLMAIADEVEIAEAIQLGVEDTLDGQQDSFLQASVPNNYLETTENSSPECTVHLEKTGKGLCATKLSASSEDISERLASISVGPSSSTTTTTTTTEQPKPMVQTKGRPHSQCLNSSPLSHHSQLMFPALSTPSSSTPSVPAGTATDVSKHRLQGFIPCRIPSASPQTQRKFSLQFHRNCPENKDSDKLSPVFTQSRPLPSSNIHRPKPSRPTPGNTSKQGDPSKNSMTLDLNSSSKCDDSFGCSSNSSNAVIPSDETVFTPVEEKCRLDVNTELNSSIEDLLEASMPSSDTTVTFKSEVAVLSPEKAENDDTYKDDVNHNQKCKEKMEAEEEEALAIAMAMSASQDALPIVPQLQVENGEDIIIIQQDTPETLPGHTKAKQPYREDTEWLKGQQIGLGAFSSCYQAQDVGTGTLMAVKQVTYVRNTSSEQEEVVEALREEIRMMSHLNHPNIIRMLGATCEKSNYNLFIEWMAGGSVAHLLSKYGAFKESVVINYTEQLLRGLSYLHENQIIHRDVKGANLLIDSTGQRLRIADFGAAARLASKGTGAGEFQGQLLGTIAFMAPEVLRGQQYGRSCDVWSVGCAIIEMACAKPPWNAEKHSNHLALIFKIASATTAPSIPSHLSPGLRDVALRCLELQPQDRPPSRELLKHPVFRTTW

Structure (SMILES): Cc1ccc(-c2c(/C=C(\C#N)C(=O)NC(C)C)n(CCCO)c3ncnc(N)c23)cc1
- residual activity (CDK4 CCND1 (human)): 100%
- residual activity (CDK4 CCND3 (human)): 95%
- kinase still bound, per cent of control (CPK1 (P.falciparum)): 68%
- kinase still bound, per cent of control [1]: 75%
- Kd (MAP2K5 (human)): 2300 nM
- Kd (MAP3K1 (human)): 45 nM
- Kd (PDGFRB (human)): 2800 nM
- kinase still bound, per cent of control (PKN3 (M.tuberculosis)): 100%
- Kd (RET (human)): 360 nM
- Kd (RIPK2 (human)): 310 nM
- Kd (RPS6KA6 KD2 (human)): 1.2 nM
- Kd (STK16 (human)): 230 nM
